# Source: patent US20220105058A1, “USE OF 3-O-SULFAMATE-16,16-DIMETHYL-D-HOMOEQUILENIN TO TREAT ONCOLOGICAL DISEASES” (priority 2018, published 2022)
# Where “and” joins values, the source holds several entries; their conditions need not be identical. Equal values may be shown once. Entries after “also recorded” stand apart in the source; their conditions may differ.
# What was measured:
# [1] = acute oral toxicity, OECD 423 test; conditions: for Lethal effects (dead/total): 14 days observation
# Procedure: LD50 of the medicament was determined in FVB mice transgenic for HER-2/neu using the OECD 423 test (OECD guideline for testing of chemicals. Acute Oral Toxicity-Acute Toxic Class Method).
# 12 female mice were used in the experiment.
# At the first step, 3 mice were given the medicament at a dose of 300 mg/kg. The study medicament was administered intragastrically (i.g.) using a metal atraumatic gavage (the procedure corresponds to the oral administration in clinical settings). […] The dosage form for administration was prepared ex tempore.
# The animals were examined 2 times a day, clinically examined individually after the dose administration during the first 60 minutes, with special attention during the first 4 hours, periodically during the first 24 hours, on Day 2 and weekly for up to 14 days. Each animal was thoroughly examined in the housing cage in the observer's hands. The overall conditions of the animals were recorded, such as peculiarities in their behavior, intensity and nature of motor activity, fur and skin appearance.
# The body weights of the animals were recorded using a verified high-speed electronic laboratory balance Ohaus Scout Pro (USA) with a maximum load of 2000 g and a measurement step of 0.1 g.
# On Day 15, the animals were euthanized and undergone autopsy analysis with the registration of macroscopic changes. The data was collected in a special individual autopsy form.
# All of the experimental animals were subject to pathomorphological examination at the end of the study. The euthanized animals were carefully examined for the external pathological changes. The chest and abdominal cavities were examined along with the macroscopic analysis of internal organs.
# When assessing the acute toxicity the animals were continuously observed for the first 60 minutes, and then examined every hour for 3 hours and further once in 24 hours. On the second day, the observation was carried out twice per day. Further the observations were made once per day. […] The animal was thoroughly examined in the housing cage in the observer's hands. The overall conditions of the animals were recorded, such as peculiarities in their behavior, intensity and nature of motor activity, fur and skin appearance.
# [2] = tested on: triple negative breast cancer MDA-MB-231 cell line; experiment: cell proliferation in MDA-MB-231; type: cell-based
# estrogen receptors = experiment: study of binding to the estrogen receptors; conditions: concentrations of −0.001 and 0.01, 0.1 and 1.0 μmol/ml
# endometrium = experiment: effects on the endometrium (summary statement)
# [3] = tested on: gastric adenocarcinoma SNU638; experiment: activity against SNU638; type: cell-based; conditions: Homo sapiens, SNU-638
# lung cancer A549 = experiment: activity against A549; type: cell-based; conditions: Homo sapiens
smiles,measurement,setting,value
"CC1(C)CC(=O)[C@@]2(C)CCc3c(ccc4cc(OS(N)(=O)=O)ccc34)[C@@H]2C1 [medicament, 3-O-sulfamate-16,16-dimethyl-D-homoequilenin]",signs of intoxication,[1]; 300 mg/kg,None of the animals exhibited visual signs of intoxication
same,Lethal effects (dead/total),[1]; 300 mg/kg i.g.,no animals died and no animals deaths were detected and 0/6
same,average body weight,"[1]; 300 mg/kg, Day 1 (before administration)",28.1 g
same,body weight of individual mice,"[1]; 300 mg/kg, Day 1 (before administration), in g (unit assumed)",29.6 and 27.8 and 28.0 and 30.0 and 27.0 and 26.4
same,average body weight,"[1]; 300 mg/kg, Day 2",28.1 g
same,"average body weight, % from baseline","[1]; 300 mg/kg, Day 2",0%
same,body weight of individual mice,"[1]; 300 mg/kg, Day 2, in g (unit assumed)",29.2 and 27.4 and 27.8 and 30.4 and 27.2 and 26.8
same,average body weight,"[1]; 300 mg/kg, Day 7",29.1 g
same,"average body weight, % from baseline","[1]; 300 mg/kg, Day 7",3%
same,body weight of individual mice,"[1]; 300 mg/kg, Day 7, in g (unit assumed)",29.6 and 28.2 and 29.7 and 31.2 and 28.4 and 27.2
same,average body weight,"[1]; 300 mg/kg, Day 14",29.5 g
same,"average body weight, % from baseline","[1]; 300 mg/kg, Day 14",5%
same,body weight of individual mice,"[1]; 300 mg/kg, Day 14, in g (unit assumed)",30.2 and 29.0 and 30.6 and 31.1 and 28.6 and 27.6
same,clinical signs of intoxication,[1]; 2000 mg/kg,No clinical signs of intoxication were observed
same,Lethal effects (dead/total),[1]; 2000 mg/kg i.g. in 2 steps,0/6
same,average body weight,"[1]; 2000 mg/kg, Day 1 (before administration)",26.2 g
same,body weight of individual mice,"[1]; 2000 mg/kg, Day 1 (before administration), in g (unit assumed)",28.4 and 27.5 and 25.7 and 24.2 and 24.0 and 27.2
same,average body weight,"[1]; 2000 mg/kg, Day 2",25.8 g
same,"average body weight, % from baseline","[1]; 2000 mg/kg, Day 2",−1%
same,decrease in the average body weight from baseline,"[1]; 2000 mg/kg, Day 2",1%
same,body weight of individual mice,"[1]; 2000 mg/kg, Day 2, in g (unit assumed)",28.0 and 26.8 and 25.3 and 24.4 and 23.8 and 26.4
same,average body weight,"[1]; 2000 mg/kg, Day 7",25.7 g
same,"average body weight, % from baseline","[1]; 2000 mg/kg, Day 7",−2%
same,decrease in the average body weight from baseline,"[1]; 2000 mg/kg, Day 7",2%
same,body weight of individual mice,"[1]; 2000 mg/kg, Day 7, in g (unit assumed)",26.8 and 24.9 and 25.0 and 25.9 and 25.4 and 26.3
same,average body weight,"[1]; 2000 mg/kg, Day 14",27 g
same,"average body weight, % from baseline","[1]; 2000 mg/kg, Day 14",3%
same,body weight of individual mice,"[1]; 2000 mg/kg, Day 14",26.9 (2×) and 26.0 and 26.6 and 28.7 and 27.0
same,macroscopic examination of internal organs at autopsy,[1]; Day 15,did not reveal any pathological changes; also recorded: did not reveal any abnormalities
same,hazard class / category,"[1]; mouse, in vivo",5th or non-classified category and 4th hazard class and 5th or unclassified category
same,toxicity,[1]; summary statement,absence of toxicity
same,inhibition of cell proliferation,[2],83%
same,hormone activity,estrogen receptors,lacks hormone activity
same,negative effects on the endometrium,endometrium,absence of negative effects
same,IC50,[3],22.8 µM
same,IC50,lung cancer A549,29.6 µM
